Test results from patent US20240083910A1, “AMIDO-SUBSTITUTED PYRIDYL COMPOUNDS AND METHODS OF USE THEREOF FOR THE TREATMENT OF HERPESVIRUSES” (Merck Sharp & Dohme LLC, priority 2020, published 2024).
Read-outs that look alike come from different tables or passages of the source.

What was measured:
[1] = target: T1, Human cytomegalovirus DNA polymerase (Human cytomegalovirus, UniProt P08546); experiment: CMV polymerase assay (AlphaLISA); assay type: biochemical; details: HCMV polymerase 0.2 nM, 30 min pre-incubation, 60 min at 37° C.
T1 construct: made in house; host or cells: SF21 insect cells (baculovirus vector)
Description: Human cytomegalovirus and varicella zoster virus DNA polymerases were expressed via baculovirus vector in SF21 cells and purified. Heterodimeric nucleic acid substrate used in the herpesvirus polymerase reactions was generated by annealing a 59-mer template to a 17-mer digoxigenin-labeled primer. Polymerase (HCMV final concentration of 0.2 nM; VZV final concentration of 0.4 nM) was combined with an inhibitor compound or DMSO in assay buffer (10 mM HEPES, pH 7.5, 25 mM KCl, 25 mM NaCl, 5 mM MgCl2, 5% glycerol, 0.67 mg/ml bovine serum albumin, and 1 mM tris(2-carboxyethyl)phosphine), and this mixture was pre-incubated for 30 minutes at room temperature in 384-well microtiter plates. The polymerization reaction was initiated by the addition of template/primer substrate (final concentration: 1.6 nM), and dNTPs (final concentration: 24 nM dCTP, 24 nMdGTP, 16 nM dATP, 16 nM dTTP, and 0.8 nM biotin-dUTP). After 60 min incubation at 37° C., reactions were terminated with quench buffer (25 mM HEPES pH 7.5, 100 mM NaCl, 0.25% Tween-20, 12 mM EDTA, and 1 mg/ml bovine serum albumin). Incorporation of biotinylated UTP was detected with 2.5-5 ug/ml anti-DIG AlphaLISA acceptor beads and 5-10 ug/ml streptavidin AlphaLISA donor beads (PerkinElmer). Compound effects were normalized to the window defined by the controls (DMSO only and pre-quenched wells) and were fit using a 4-parameter algorithm to report an IC50.

[2] = tested on: HCMV Strain AD169; experiment: Viral qPCR assay, HCMV; assay type: cell-based, Human cytomegalovirus; details: MRC-5 cells, 0.05-0.1 pfu/cell, growth media or 50% fetal bovine serum, viral genome copies by qPCR, read-out: CMV Cell (EC50)
Description: (§1) MRC5 cells, Vero cells, and MeWo cells were obtained from ATCC, and were maintained at 37° C./5% CO2/90% relative humidity in Minimal Essential Medium with 10% fetal bovine serum, […] L-glutamine, 100 units/ml penicillin and 100 ug/ml streptomycin. Assay plates were prepared by dispensing compounds dissolved in DMSO into wells of 384 well collagen-coated plates using an ECHO acoustic dispenser. Each compound was tested in a 10-point, serial 3-fold dilution. Controls included uninfected cells and infected cells treated only with DMSO. Assays were initiated by mixing selected cells, in suspension, with virus, and dispensing 50 μl/well infected cells to pre-plated compounds. Plates were incubated at 37° C./5% CO2/90% relative humidity for ˜72 hrs to permit genomic replication, and infected cells were lysed by the addition of an equal volume of lysis buffer (10 mM Tris-HCl, pH8, 50 mM KCl, 2 mM MgCl2, 0.45% NP-40, 0.45% Tween-20, and 100 μg/ml proteinase K). An aliquot of the lysate was transferred to a 384-well PCR plate and incubated at 56° C. for 1 hour and then at 95° C. for 10 min. Levels of a viral gene and of the cellular control, PPIA (Thermo Fisher Assay ID=Hs04194521_s1), were measured in separate 10 ul qPCR assays using TaqMan® Gene Expression Master Mix (Applied Biosystems), and an 7900HT Fast Real-Time PCR System with 384-Well Block Module. 7-point, serial 10-fold dilutions of a plasmid standard were run on each plate to generate a standard curve, and genome copies numbers were calculated by plotting experimental Ct onto linear regression of the standard curve. Viral genome copy numbers were normalized by cellular control copy number, and compound effects were normalized to the window defined by the controls. Calculated % effects were fit using a 4-parameter algorithm, and EC50 was reported.
(§2) MRC5 cells, Vero cells, and MeWo cells were obtained from ATCC, and were maintained at 37° C./5% CO2/90% relative humidity in Minimal Essential Medium with 10% fetal bovine serum, […] L-glutamine, 100 units/ml penicillin and 100 ug/ml streptomycin. Assay plates were prepared by dispensing compounds dissolved in DMSO into wells of 384 well collagen-coated plates using an ECHO acoustic dispenser. Each compound was tested in a 10-point, serial 3-fold dilution. Controls included uninfected cells and infected cells treated only with DMSO. Assays were initiated by mixing selected cells, in suspension, with virus, and dispensing 50 μl/well infected cells to pre-plated compounds. Plates were incubated at 37° C./5% CO2/90% relative humidity for ˜72 hrs to permit genomic replication, and infected cells were lysed by the addition of an equal volume of lysis buffer (10 mM Tris-HCl, pH 8, 50 mM KCl, 2 mM MgC12, 0.45% NP-40, 0.45% Tween-20, and 100 μg/ml proteinase K). An aliquot of the lysate was transferred to a 384-well PCR plate and incubated at 56° C. for 1 hour and then at 95° C. for 10 min. Levels of a viral gene were measured in 10 ul qPCR assays using TaqMan® Gene Expression Master Mix (Applied Biosystems), and an 7900HT Fast Real-Time PCR System with 384-Well Block Module. 7-point, serial 10-fold dilutions of a plasmid standard were run on each plate to generate a standard curve, and genome copies numbers were calculated by plotting experimental Ct onto linear regression of the standard curve. Compound effects on viral genome copy number were normalized to the window defined by the controls. Calculated % effects were fit using a 4-parameter algorithm, and ECso was reported.
HCMV: Strain AD169 Street was assayed in MRC-5 cells and was used at 0.05-0.1 pfu/cell. The assays were performed in either growth media or in the same media with 50% fetal bovine serum. Primer-probe set was Thermo Fisher Assay ID=AIFATFK.

[3] = tested on: VZV; experiment: Viral qPCR assay, VZV; assay type: cell-based, varicella zoster virus; details: MeWo or MRC5 cells, 0.04-0.1 pfu/cell, growth medium, viral genome copies by qPCR
Description: as §1, §2
VZV: Strain Street was maintained as an infected cell stock in MRC-5 cells. It was assayed in MeWo or MRC5 cells and was used at 0.04-0.1 pfu/cell. The assays were performed in growth medium. Primer-probe set was Thermo Fisher Assay ID=AIPAEXQ.

[4] = tested on: HSV-1 Strain F; experiment: Viral qPCR assay, HSV-1; assay type: cell-based, Herpes Simplex Virus type 1; details: Vero or MRC5 cells, 0.0005-0.004 pfu/cell, growth medium, viral genome copies by qPCR, read-out: HSV1 Cell (EC50)
Description: as §1, §2
HSV-1: Strain F […] was assayed in Vero or MRC5 cells and was used at 0.0005-0.004 pfu/cell in growth medium. Primer-probe set was Thermo Fisher Assay ID=AIBJZIB

[5] = Human betaherpesvirus 5, AD169, MRC5, 72 h

T1 sequence (P08546 whole entry): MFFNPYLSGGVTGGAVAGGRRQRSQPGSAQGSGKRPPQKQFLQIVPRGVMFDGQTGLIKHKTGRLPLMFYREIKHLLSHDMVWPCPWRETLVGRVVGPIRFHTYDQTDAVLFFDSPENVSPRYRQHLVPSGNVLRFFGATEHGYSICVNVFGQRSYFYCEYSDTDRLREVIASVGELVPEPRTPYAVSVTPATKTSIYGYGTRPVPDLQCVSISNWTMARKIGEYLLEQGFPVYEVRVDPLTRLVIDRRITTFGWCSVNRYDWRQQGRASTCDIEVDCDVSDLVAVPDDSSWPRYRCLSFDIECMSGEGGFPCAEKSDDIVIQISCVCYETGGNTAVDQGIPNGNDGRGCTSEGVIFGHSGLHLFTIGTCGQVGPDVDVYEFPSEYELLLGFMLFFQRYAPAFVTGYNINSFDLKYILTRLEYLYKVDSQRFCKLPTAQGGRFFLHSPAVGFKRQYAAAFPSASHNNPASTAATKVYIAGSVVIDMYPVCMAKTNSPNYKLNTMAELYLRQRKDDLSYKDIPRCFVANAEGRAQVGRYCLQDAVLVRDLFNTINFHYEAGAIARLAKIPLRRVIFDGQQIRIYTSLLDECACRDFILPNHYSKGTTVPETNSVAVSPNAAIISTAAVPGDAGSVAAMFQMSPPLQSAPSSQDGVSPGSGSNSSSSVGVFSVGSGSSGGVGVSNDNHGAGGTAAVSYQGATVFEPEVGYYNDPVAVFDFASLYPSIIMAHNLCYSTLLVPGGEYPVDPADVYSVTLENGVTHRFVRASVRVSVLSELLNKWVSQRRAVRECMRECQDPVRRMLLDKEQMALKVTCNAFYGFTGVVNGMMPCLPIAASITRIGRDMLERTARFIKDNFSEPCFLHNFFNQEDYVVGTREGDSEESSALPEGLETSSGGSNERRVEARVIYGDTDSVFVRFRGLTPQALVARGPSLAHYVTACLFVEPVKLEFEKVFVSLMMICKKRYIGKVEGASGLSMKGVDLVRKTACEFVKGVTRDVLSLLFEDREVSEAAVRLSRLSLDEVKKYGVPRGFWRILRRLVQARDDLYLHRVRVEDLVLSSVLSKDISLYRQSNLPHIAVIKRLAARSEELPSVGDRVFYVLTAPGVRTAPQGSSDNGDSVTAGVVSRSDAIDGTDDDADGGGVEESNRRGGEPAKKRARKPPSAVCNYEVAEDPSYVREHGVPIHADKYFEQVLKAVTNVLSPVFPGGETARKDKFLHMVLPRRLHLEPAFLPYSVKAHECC

SMILES | IC50 ([1]; read-out: CMV (IC50)) [nM] | EC50 [2, 5] [nM] | EC50 ([3]; Human alphaherpesvirus 3, 72 h) [nM] | EC50 ([4]; Human alphaherpesvirus 1, 72 h) [nM] | EC50 ([2]; ~72 hrs) [nM] | EC50 ([3]; ~72 hrs) [nM] | EC50 ([4]; ~72 hrs) [nM] | IC50 ([1]; CMV (IC50)) [nM]
COc1nccc(-c2nc(OC)c(C(=O)NCc3ccc(Cl)cc3)cc2O[C@H]2CCN3C(=O)OC[C@@H]3C2)n1 [Compound 53] | 164 | 3990 | – | – | – | – | – | –
CCn1cc(-c2nc(OC)c(C(=O)NCc3ccc(Cl)cc3)cc2O[C@H]2CCN3C(=O)OC[C@@H]3C2)cn1 [Compound 31] | 5.13 | 175 | 102 | 103 | – | – | – | –
COc1nc(C2CC2O)c(O[C@H]2CCN3C(=O)OC[C@@H]3C2)cc1C(=O)NCc1ccc(Cl)cc1 (single isomer, unassigned) [Compound 79] | 28.7 | – | – | – | 337 | 463 | 518 | –
CC(C)(C#N)COc1nc(-c2cnn(C(F)F)c2)c(O[C@H]2CCN3C(=O)OC[C@@H]3C2)cc1C(=O)NCc1ccc(Cl)cc1 [Compound 92] | 7.31 | 137 | 417 | 229 | – | – | – | –
COc1ccc(-c2nc(OC)c(C(=O)NCc3ccc(Cl)cc3)cc2O[C@H]2CCN3C(=O)OC[C@@H]3C2)cn1 [Compound 43] | 22.3 | 422 | 298 | 169 | – | – | – | –
COc1nc(-c2ccc3cc[nH]c3c2)c(O[C@H]2CCN3C(=O)OC[C@@H]3C2)cc1C(=O)NCc1ccc(Cl)cc1 [Compound 50] | 80.7 | 2760 | – | – | – | – | – | –
COc1nc(-c2cncc(CO)c2)c(O[C@H]2CCN3C(=O)OC[C@@H]3C2)cc1C(=O)NCc1ccc(Cl)cc1 [Compound 44] | 20 | 326 | 585 | 263 | – | – | – | –
COc1nc(-c2cnn(C(F)F)c2)c(O[C@@H]2CCN(C(C)=O)[C@H](C)C2)cc1C(=O)NCc1ccc(Cl)cc1 [Compound 102] | 14.5 | 344 | 887 | 601 | – | – | – | –
COc1nc(-c2cc[nH]c2)c(O[C@H]2CCN3C(=O)OC[C@@H]3C2)cc1C(=O)NCc1ccc(Cl)cc1 [Compound 28] | 5.36 | 200 | 196 | 103 | – | – | – | –
COc1nc(N2CCC(C(C)(C)O)C2)c(O[C@H]2CCN3C(=O)OC[C@@H]3C2)cc1C(=O)NCc1ccc(Cl)cc1 (stereo partly drawn) [Compound 68] | 28.7 | – | – | – | 265 | 661 | 654 | –
COc1nc(N2CCC(C(C)(C)O)C2)c(O[C@H]2CCN3C(=O)OC[C@@H]3C2)cc1C(=O)NCc1ccc(Cl)cc1 (stereo partly drawn) [Compound 67] | 22.9 | 368 | – | 568 | – | 2270 | – | –
COc1nc(-c2cccc3cc[nH]c23)c(O[C@H]2CCN3C(=O)OC[C@@H]3C2)cc1C(=O)NCc1ccc(Cl)cc1 [Compound 49] | 131 | 2740 | – | – | – | – | – | –
COc1nc(N2CC3(C(C)(C)O)CC2C3)c(O[C@H]2CCN3C(=O)OC[C@@H]3C2)cc1C(=O)NCc1ccc(Cl)cc1 [Compound 69] | 53.9 | 1480 | – | – | – | – | – | –
COc1nc(-c2cc[nH]n2)c(O[C@H]2CCN3C(=O)OC[C@@H]3C2)cc1C(=O)NCc1ccc(Cl)cc1 [Compound 18] | 19.6 | 1200 | – | – | – | – | – | –
COc1nc(-c2ccccn2)c(O[C@H]2CCN3C(=O)OC[C@@H]3C2)cc1C(=O)NCc1ccc(Cl)cc1 [Compound 52] | 120 | 3480 | – | – | – | – | – | –
COc1ccc(-c2nc(OC)c(C(=O)NCc3ccc(Cl)cc3)cc2O[C@H]2CCN3C(=O)OC[C@@H]3C2)nc1 [Compound 35] | 79.5 | 1940 | – | – | – | – | – | –
COc1nc(C2CC2O)c(O[C@H]2CCN3C(=O)OC[C@@H]3C2)cc1C(=O)NCc1ccc(Cl)cc1 (single isomer, unassigned) [Compound 77] | – | – | – | – | 872 | – | – | 31.5
COc1nc(-c2ccnc3[nH]ccc23)c(O[C@H]2CCN3C(=O)OC[C@@H]3C2)cc1C(=O)NCc1ccc(Cl)cc1 [Compound 51] | 133 | 3340 | – | – | – | – | – | –
COc1nc(-c2cc(C(F)(F)F)nn2C)c(O[C@H]2CCN3C(=O)OC[C@@H]3C2)cc1C(=O)NCc1ccc(Cl)cc1 [Compound 48] | 193 | 2010 | – | – | – | – | – | –
COc1nc(C2CC2O)c(O[C@H]2CCN3C(=O)OC[C@@H]3C2)cc1C(=O)NCc1ccc(Cl)cc1 (single isomer, unassigned) [Compound 80] | 98.9 | – | – | – | 3210 | – | – | –
COc1nc(-c2cc3cccc(OC)c3[nH]2)c(O[C@H]2CCN3C(=O)OC[C@@H]3C2)cc1C(=O)NCc1ccc(Cl)cc1 [Compound 54] | 23.7 | 5260 | – | – | – | – | – | –
